# Laboratory results taken from patent US9902761B2, “Polypeptides, nucleic acids and uses thereof” (AGENCY FOR SCIENCE, TECHNOLOGY AND RESEARCH, priority 2013, dated 2018).
# Positions count from the first letter of the chain named.
# Legend:
# [1] = system: ELA processing and secretion; assay: Xenopus secretion assay of human ELA; type: cell-based, Xenopus laevis; settings: increasing amounts of inhibitor
# Method: ZFNs were purchased from Sigma-Aldrich. […] of mRNAs encoding the ZFN pair were injected into 1-cell stage embryos. ZFN binding sites within exon 1 are as follows: 5′_[…]_3′ (SEQ ID NO: 133) and 5′_[…] 3′ (SEQ 1D NO: 134). Sequencing primers flanking the mutation sites are: forward 5′_[…]_3′ (SEQ ID NO: 135), reverse 5′_[…] 3′ (SEQ ID NO: 136). For ela overexpression, 200 pg of SP6-transcribed zebrafish ela capped mRNA (Applied Biosystems) was injected into 1-cell stage zebrafish embryos. Translation blocking MOs used for aplnra and aplnrb have been described previously (Scott et al., 2007; Zeng et al., 2007) and were purchased from Gene tools (Oregon, USA). Embryos were injected at 1-cell stage with a combination of 1 ng of aplnra MO and 0.5 ng of apinrb MO (Zeng et al., 2007). Information on probes used for q-PCR and WISH can be found in Tables E1 and E2. Zebrafish embryos at 100% epiboly were dechorionated and processed for western blotting as previously described (Link et al., 2006). For the Xenopus secretion assay, 16 ng of SP6-transcribed human ELA capped mRNA (Applied Biosystems) was injected into each cell of 4-cell stage embryos. At stage 8, embryos were dechorionated and dissociated in CMFM medium with 5 mM EDTA. […]
# aplnrb^grinch (W90L) = target: T1, aplnrb^grinch (W90L) (Danio rerio, UniProt A0T2N3, W90L); assay: AP-ELA binding assay, 293T cells overexpressing receptor; settings: 293T overexpression
# T1 sequence (A0T2N3 1-359 W90L): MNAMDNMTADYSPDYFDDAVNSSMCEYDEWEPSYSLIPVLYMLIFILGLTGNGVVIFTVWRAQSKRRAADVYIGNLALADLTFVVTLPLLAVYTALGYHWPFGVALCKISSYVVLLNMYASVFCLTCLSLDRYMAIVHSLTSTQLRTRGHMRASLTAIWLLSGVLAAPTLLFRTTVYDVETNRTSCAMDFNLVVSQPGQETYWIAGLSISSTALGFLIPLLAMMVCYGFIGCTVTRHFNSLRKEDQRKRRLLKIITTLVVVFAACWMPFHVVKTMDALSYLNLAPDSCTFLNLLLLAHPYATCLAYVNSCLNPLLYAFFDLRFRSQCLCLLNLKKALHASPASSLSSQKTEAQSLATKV
# zebrafish aplnrb = target: T2, zebrafish aplnrb (Danio rerio, UniProt A0T2N3); assay: as above; settings: HEK293T overexpression
# T2 sequence (A0T2N3 1-359): T1 sequence (A0T2N3 1-359 W90L) with L90W
# hESCs [2] = assay: AP-ELA cell surface binding assay on hESCs; parameters: species or system human; settings: undifferentiated hESCs
# zebrafish aplnra = target: T3, zebrafish aplnra (Danio rerio, UniProt Q7SZP9); assay: AP-ELA binding assay, 293T cells overexpressing receptor; settings: HEK293T overexpression
# T3 sequence (Q7SZP9 1-362): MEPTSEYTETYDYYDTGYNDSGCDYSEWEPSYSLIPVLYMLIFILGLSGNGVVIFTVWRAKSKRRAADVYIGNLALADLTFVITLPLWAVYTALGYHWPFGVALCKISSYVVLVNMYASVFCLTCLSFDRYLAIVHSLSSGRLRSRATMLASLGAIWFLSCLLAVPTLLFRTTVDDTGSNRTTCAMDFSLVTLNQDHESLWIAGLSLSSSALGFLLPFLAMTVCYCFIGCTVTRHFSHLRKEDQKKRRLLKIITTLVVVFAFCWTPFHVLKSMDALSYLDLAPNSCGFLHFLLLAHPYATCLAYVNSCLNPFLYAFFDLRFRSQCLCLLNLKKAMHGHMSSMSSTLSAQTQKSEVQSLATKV
# PI3K/AKT pathway = assay: signaling pathway assay in starved hESCs pulsed with peptide (SDS-PAGE, western); type: cell-based, human; settings: 5 uM peptide after 2-hour starvation
# Method: To assay the signaling pathway activated by ELA, hESCs were dissociated and plated in mTSER1 for 48 hours, followed by a 2-hour starvation in DMEM/F12. Synthetically produced ELA or ELA^RR>GG peptides, dialyzed against PBS to remove any residual synthesis buffers, were added at a final concentration of 5 uM (or as indicate(D) for the indicated period of time. Where applicable, PI3K inhibitors LY294002 (5 uM) and Wortmannin (1 uM) were added 30 minutes before pulsing with ELA peptides. Cells were lysed with PhosphoSafe™ (Millipore) for SDS-PAGE.
# hESCs [3] = assay: stress-induced apoptosis of hESCs by ActinomycinD; type: cell-based, human; settings: for resistance or sensitivity to ActinomycinD: nanomolar concentrations of ActinomycinD
# Method: To induce apoptosis, hESCs were treated with the indicated doses of ActinomycinD (Sigma) or ionizing radiation followed by Aqueous One Cell Titer (Promega) or CASPASE GLO3/7 (Promega) assays 12 hours post-treatment.
# ELA = target: T4, ELA (Homo sapiens, UniProt P0DMC3); assay: extracellular neutralizing assay with affinity purified anti-ELA antibodies in hESC culture; type: cell-based; settings: peptide added with α N antibodies
# T4 construct: ELA is an endogenous secreted peptide that is essential for the survival and self-renewal of hESCs; endogenous in cells; host or cells: hESCs (Shef4 / Shef4TetR5)
# T4 sequence (P0DMC3 23-54): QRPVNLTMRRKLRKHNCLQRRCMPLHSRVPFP
# hESCs [4] = assay: xCELLigence real time growth assay, cell counts and colony size of hESCs; type: cell-based, human
# Method: Feeder-free hESCs were cultured in clumps in mTSER1 (Stem Cell Technologies) on Matrigel (BD 354277).
# (§1) hESCs were dissociated into single cells using Accutase (Stem Cell Technologies) and plated in the presence of 10 μM Y-27632 (ROCK inhibitor) for 12 hours (Watanabe et al., 2007).
# For xCELLigence real time growth assays, 4000 cells were plated per well of an E-plate (ACEA Biosciences) with media changes every 48 hours.
# Recombinant ELA was added at 2.5 uM (or 10 μg/ml). Cell cycle studies were performed with Click-iT EDU staining kit (Invitrogen) and by performing a double thymidine block (2.5 mM thymidine; 16 hour block, 8 hour release, 16 hour block) followed by DAPI staining for DNA content at the indicated times following release.
# hESCs [5] = assay: insulin replacement assay in hESCs; type: cell-based, human; settings: SHEF4 and HESC3 hESCs, 24 hours of growth without INSULIN
# Method: For insulin replacement assays, SHEF4 or HESC3 hESCs were cultured in TSER-E5 (Stem Cell Technologies) supplemented with TGF-β (5 ng/ml, R&D Systems) and bFGF (100 ng/ml, Invitrogen) with and without INSULIN (10 ug/ml, SIGMA).
# hESCs [6] = assay: stress-induced apoptosis of hESCs by ionizing radiation; type: cell-based, human
# [7] = teratoma analysis after subcutaneous injection of hESCs; type: in vivo, SCID mice; settings: 10 million cells subcutaneously, day 60
# Method: Shef4TetR5-shELA cells were cultured in the presence (shELA) or absence (Control) of 20 ng/ml doxycycline for 3 passages (4 days/passage). Cells were harvested with Accutase (Stemcell Technologies) and resuspended in 1 part Matrigel to 2 parts mTSERL. 10 million cells in 200 μl were injected subcutaneously into the right hind paunches of SCID mice. shELA-injected mice were fed doxycycline (20 μg/ml) for 3 weeks following injection. Mice were sacrificed 60 days post-injection for tumor analysis.
# hESCs [8] = assay: pluripotency markers and colony morphology of knockdown hESCs; type: cell-based, human; settings: prolonged depletion
# Method: To generate stable inducible knockdown of ELA in hESCs, the sequence […] (SEQ ID NO: 132) targeting the 3′UTR of ELA was cloned into pSUPERIOR (Oliogoengine) and nulcleofected (Lonza) into Shef4TetR5 hESCs (Zafarana et al., 2009). Neomycin-resistant cells were clonally expanded and assayed for doxycycline (20 ng/ml)-inducible knockdown. Data from one representative clone (ShefTetR5 shELA) are shown in this paper. Shef4TetR5 shβ2M were derived as previously described (Zafarana et al., 2009). Unless otherwise stated, ELA knockdown was induced on Day −4 with 20 ng/ml doxycycline to generate shELA cells.
# hESCs [9] = assay: qPCR of mesendodermal markers in hESCs; type: cell-based, human
# Method: After the indicated time periods, embryoid bodies were harvested and RNA extracted using RNeasy kit ([…]). qPCR reactions were carried out using either Universal FastSlart SYBR Green Mastermix (Roche) or using the Universal Probe Library system (Roche) in tandem with Taqman Fast Mastermix (Invitrogen). Primer sequences can be found in Table E1.
# hESCs [10] = assay: stress-induced apoptosis of hESCs by ActinomycinD; type: cell-based, human
# hESCs [11] = assay: survival of hESCs after single-cell dissociation (anoikis); type: cell-based, human; settings: with or without Y-27632
# Method: as §1
# hESCs [12] = assay: directed endoderm differentiation of hESCs, SOX17+ cell count; type: cell-based, human
# Method: Shef4TetR5-shELA and Shef4TetR5-shβ2M cells were cultured in the presence (shELA and shβ2M respectively) or absence (Control) of 20 ng/ml doxycycline for 1 passage (4 days) and dissociated with Accutase. […] 24 hours later, the media was changed to Endo differentiation media 1 [RPMI 1640 (Gibco), 1× B-27 supplement (Invitrogen), 50 ng/ml of Activin A (R&D Systems), 25 ng/ml BMP4 (R&D Systems) and 50 ng/ml bFGF (Invitrogen)] for 3 days. On day 3, the media was changed to Endo differentiation media 2 (RPMI 1640, B27, 50 ng/ml Activin) for 2 more days of culture. Rescue experiments were performed by adding 2.5 uM of ELA peptide to Shef4TetR5-shELA concurrently with doxycycline up to day 3, when the ELA peptide is no longer necessary as judged by downregulation of endogenous ELA.
# On day 5, cells were fixed with 4% paraformaldehyde and stained with α SOX17 (AF1924, R&D Systems) and DAPI. For each well, three different randomly selected fields were imaged and the number of nuclei staining positive of SOXI 7 and DAPI were counted using a custom macro in ImageJ. A minimum of two wells per condition was used for each experiment, and a minimum of two independent experiments were performed to generate the results.
# hESCs [13] = assay: protein synthesis by incorporation of fluorescently-labeled amino acids; type: cell-based, human
# hESCs [14] = type: cell-based, human; settings: data not shown
compound,measurement,setting,value
C[C@H]1CCC/C=C/[C@@H]2C[C@H](O)C[C@H]2[C@H](O)/C=C/C(=O)O1 [Brefeldin A],ELA processing and secretion,[1],able to block ELA processing and secretion
"AP-ELA: mature C-terminal 32-mer of ELA cloned in frame with alkaline phosphatase, secreted from 293T cells",binding of AP-ELA to aplnrb^grinch,aplnrb^grinch (W90L),unable to bind AP-ELA
same,cell-surface binding of AP-ELA to aplnrb,zebrafish aplnrb,sufficient to afford cell-surface binding
same,binding of AP-ELA to hESCs,hESCs [2],readily bind
same,cell-surface binding of AP-ELA to aplnra,zebrafish aplnra,sufficient to afford cell-surface binding
"ELA^RR>GG: doubly mutated ELA mutant peptide (R31G, R32G), non-signaling (QRPVNLTMGGKLRKHNCLQRRCMPLHSRVPFP)",phosphorylation of AKT at serine 473 and PRAS40 at threonine 246,PI3K/AKT pathway,not observed
same,resistance or sensitivity to ActinomycinD,hESCs [3],no protective effect
same,competition of the neutralizing activity of the antibody by peptide,ELA,competed out
same,growth of hESCs relative to untreated cells,"hESCs [4]; cell counts, colony size, real-time cell indices, peptide 2.5 uM (10 μg/ml)",without effect
same,rescue in cell viability in the absence of INSULIN,hESCs [5],exerted no effects
"GTGATTCTCGTGCCTCAAC (expressed or natural sequence) [shELA, doxycycline-inducible shRNA targeting the 3′UTR of ELA in Shef4TetR5 hESCs]",sensitivity to gamma irradiation relative to control,hESCs [6],twice as sensitive
same,activated CASPASE 3 after irradiation,hESCs [6]; 3 hours after 1 Gray of γ irradiation,higher levels of activated CASPASE 3
same,teratoma formation,[7],did not form teratomas
same,"pluripotency markers POU5F1, NANOG, SSEA3 and TRA-1-60",hESCs [8],downregulation of pluripotency markers
same,activated CASPASE3/7 and CASPASE 9 after ActinomycinD,hESCs [3],increased levels of activated CASPASE3/7
same,resistance or sensitivity to ActinomycinD,hESCs [3],more sensitive compared to control
same,"expression of mesendodermal genes GATA6, GATA4, FOXA2, EOMES and BRA",hESCs [9],conversely downregulated
same,levels of MCL-1,hESCs [10],lower levels
same,BAX localisation,hESCs [10]; mitochondria versus cytoplasm,higher levels of BAX in the mitochondria
same,growth rates of knockdown hESCs seeded as single cells,"hESCs [4]; real-time cell index, compared to control and shβ2M hESCs",markedly reduced growth rates
same,colony size of knockdown hESCs,hESCs [4]; relative to shβ2M hESCs,less than half the size
same,survival following dissociation (anoikis),hESCs [11],do not survive single-cell dissociation
same,reduction over control in the number of SOX17+ cells,"hESCs [12]; 5 days directed differentiation, FIG. 6F",45%
same,reduction of SOX17 expression,"hESCs [12]; directed differentiation, control, shELA and shβ2M, FIG. 13C",35%
same,protein synthesis,hESCs [13],reduced protein synthesis
APELIN-13,effect on hESCs,hESCs [14],no effect on hESCs
"C[C@@H](N)[C@H]1CC[C@H](C(=O)Nc2ccncc2)CC1 [ROCK inhibitor, Y-27632, reference compound]",survival following dissociation (anoikis),hESCs [11],protects against anoikis
